According to patent publication US10081632B2, “Substituted tetrahydropyrido[3′,2′:4,5]pyrrolo[1,2-α]pyrazine-2-carboxamides as RSK inhibitors” (Phoenix Molecular Designs, priority 2016, dated 2018):
Marks after values point to notes of the source that are not given here.

How the values were obtained:
SUM149-PTXR cells = assay: Monolayer growth inhibition, Alamar blue assay; format: cell-based, Human; conditions: SUM149-PTXR (TNBC, BRCA Mutant), 5 days, single dose on day 1
From the text: (§1) In all instances a single dose was given on day 1 of the experiment.

T47D cells [1] = assay: Monolayer growth inhibition, Alamar blue assay; format: cell-based, Human; conditions: T47D (ER/PR), 5 days, single dose on day 1
From the text: as §1

MDA-MB-231 cells [2] = assay: Immuno-oncology gene expression (HLA-DRA, CIITA, CD274 mRNA); format: cell-based, Human; conditions: Compound 16 2 or 4 uM, Compound 18 1, 2, or 4 uM
From the text: (§2) A key feature of cancer is low immunogenicity. This can occur by several mechanisms that allow the cells to escape immune recognition. […] HLA-DRA is a member of MHC-II genes and CIITA is the master regulator of MHC II transcription. Thus it was surprising that CIITA, which would be expected to regulate MHC II gene expression, was not altered by RSK inhibition. […] HLA-DRA is important for immune recognition while PD-L1 is involved in immune checkpoints.

JIMT-1 cells [3] = assay: as above; format: cell-based, Human
From the text: as §2

[4] = tested on: phosphorylated Y-box binding protein-1 (YB-1) at serine 102 (P-YB-1S102); assay: Immunoblotting of cell signalling, loss of P-YB-1 in MDA-MB-231 cells
Description: Following desired experimental conditions, breast cancer cell lines grown and treated in 6 well plates or 100 mm culture dishes (Grenier Bio-One) were placed on ice and the supernatant from each well was removed and the cells were washed in cold PBS. Following removal of PBS, cells were exposed to radioimmunoprecipitation assay (RIPA) buffer (50 mM Tris-HCl (pH 8), 150 mM NaCl, 1% NP-40, 0.5% sodium deoxycholate, 0.1% SDS; Fisher Scientific) supplemented with 1% phosphatase inhibitor (Fisher Scientific) and 1% protease inhibitor (Fisher Scientific) for 10 minutes. Samples were transferred to eppendorf tubes, vortexed and then centrifuged at 14 000 rpm for 10 minutes. Supernatants were collected as whole cell lysates.
To begin, the protein content of the lysates was measured using the Bicinchoninic Acid (BCA) Protein Assay Kit (Pierce), which included a protein standard curve generated with bovine serum albumin. Appropriate volumes of samples and loading buffer (50 mM Tris-HCl (pH 6.8), 2% SDS, 10% glycerol, 1% j-mercaptoethanol, 12.5 mM EDTA, 0.02% bromophenol blue) were mixed, ensuring that equal amounts of protein were loaded. For the majority of experiments in this study, 30 μg of protein per well was loaded. Samples were then resolved on SDS-PAGE (polyacrylamide gel electrophoresis) using various percentages of acrylamide gels (8%-12%), depending on the proteins of interest. SDS-PAGE was run in SDS running buffer (25 mM Tris, 192 mM glycine, 0.1% SDS) and then transferred to nitrocellulose membranes (Bio-Rad) in transfer buffer (48 mM Tris, 39 mM glycine, 20% (v/v) methanol) at 100 volts for 90 minutes at room temperature. Immunoblots were then blocked in 5% skim milk in tris-buffered saline with 0.1% Tween-20 (TBS-T; 50 mM Tris-HCl, pH 7.5, 150 mM NaCl, 0.1% (v/v) Tween-20 (Fisher Scientific)) for 1 to 2 hours. Immunoblots were then incubated with selected primary antibodies diluted in TBS-T with 0.1% gelatin (Bio-Rad) and 0.05% sodium azide (Alfa Aesar) overnight. Following washes with TBT-T 4 times for 8 to 10 minutes, immunoblots were incubated with appropriate secondary antibodies conjugated to horseradish peroxidise (Cell Signalling Technology) diluted in TBS-T plus 5% skim milk at a ratio of 1:5000 for 2 hours at room temperature. After an additional round of washes in TBS-T, immunoblots were exposed to combined enhanced chemiluminescence (ECL) reagents (Fisher Scientific) for 1 minute and developed using ChemiDoc MP Imaging System (Bio-Rad). For certain immunoblots, bands of proteins of interest were scanned and band intensity ratios were determined by densitometric analysis (ImageJ). […] Total YB-1 was used as a loading control (1:5000 Abcam). […] To assess whether cells are actively undergoing cell death, the activity of poly ADP ribose polymerase (PARP) (1:1000 CST) was also measured using the immunoblotting method.

CD34+ cells = assay: Colony forming unit hematopoietic stem cell assay; format: cell-based, human
MDA-MB-231 cells [5] = assay: Soft agar growth inhibition assay; format: cell-based; conditions: Homo sapiens, MDA-MB-231; growth in soft agar (SA); read-out: MDA-MB-231 IC50 (SA)
MDA-MB-468 cells [6] = assay: Soft agar growth inhibition assay; format: cell-based, Human; conditions: MDA-MB-468 (TNBC), 14-22 days
4T1 cells [7] = assay: Monolayer growth inhibition, crystal violet assay; format: cell-based; conditions: Mus musculus, 4T1, 4T1 (TNBC), 5 days, single dose on day 1
From the text: as §1

HCC1937 cells [8] = assay: Monolayer growth inhibition, crystal violet assay; format: cell-based; conditions: Homo sapiens, HCC1937, HCC1937 (TNBC, BRCA Mutant), 5 days, single dose on day 1
From the text: (§3) In all instances a single dose was given on day 1 of the experiment. […] Complete (100%) growth suppression was achievable with several of the compounds in multiple different cell lines.

JIMT-1 cells [9] = assay: Monolayer growth inhibition, crystal violet assay; format: cell-based; conditions: Homo sapiens, JIMT-1, JIMT-1 (HER2), 5 days, single dose on day 1
From the text: as §3

MDA-MB-468 cells [10] = assay: Monolayer growth inhibition, crystal violet assay; format: cell-based; conditions: Homo sapiens, MDA-MB-468, MDA-MB-468 (TNBC), 5 days, single dose on day 1
From the text: as §3

T47D cells [11] = assay: Monolayer growth inhibition, crystal violet assay; format: cell-based; conditions: Homo sapiens, T47D, T47D (ER/PR), 5 days, single dose on day 1
From the text: as §3

4T1 cells [12] = assay: Monolayer growth inhibition, Alamar blue assay; format: cell-based; conditions: Mus musculus, 4T1, 4T1 (TNBC), 5 days, single dose on day 1
From the text: as §1

HCC1937 cells [13] = assay: Monolayer growth inhibition, Alamar blue assay; format: cell-based; conditions: Homo sapiens, HCC1937, HCC1937 (TNBC, BRCA Mutant), 5 days, single dose on day 1
From the text: as §1

PC3 cells = assay: Monolayer growth inhibition, Alamar blue assay; format: cell-based; conditions: Homo sapiens, PC-3; PC3 (Prostate), 5 days, single dose on day 1
From the text: as §1

JIMT-1 cells [14] = assay: Monolayer growth inhibition, Alamar blue assay; format: cell-based; conditions: Homo sapiens, JIMT-1, JIMT-1 (HER2), 5 days, single dose on day 1
From the text: as §1

[15] = Solubility assessment, 20 mg/ml solution; format: physicochemical
Summary of the method: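 Compounds from 100 mM DMSO stocks diluted to 20 mg/ml in DMEM with FBS and penicillin/streptomycin, vortexed and checked visually for precipitate. One compound instead diluted to 20 mg/ml in phosphate-buffered saline, solution pH 2.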

MDA-MB-231 cells [16] = assay: Combination with paclitaxel, monolayer growth (crystal violet); conditions: MDA-MB-231, 5 days
Description: 1×10^3 cells per well were seeded for a final volume of 200 μl per well and plates were incubated for 5 days at 37° C. in a humidified incubator with 5% CO2. Following the incubation period, cell survival was quantified by Alamar blue assay (Life Technologies). Briefly, media from each well was replaced with 100 μl of phosphate buffer saline (PBS, Life Technologies) and cells were incubated with 5% Alamar blue, which incorporates a propriety redox indicator that changes colour in response to metabolic activity, for up to 2 hours. During this period of incubation, the absorbance at 570 nm and 600 nm was measured at various time points, depending on the cell line or sample. Percent survival was calculated by comparing the absorbance ratio of the test well to the control well multiplied by 100%, as indicated in the following formula:
Following, plates were prepared for crystal violet staining. To begin, 100 μl of an 8% formaldehyde (Alfa Aesar) solution diluted in PBS was added to each well and plates were stored at 4° C. overnight. Next, the formaldehyde solution was discarded and the wells were washed with 200 μl ultrapure water per well three times. Following, 50 μl of a 0.5% crystal violet solution (0.5% w/v crystal violet (Alfa Aesar), 25% methanol (VWR)) was added to each well and incubated at room temperature for 20 minutes. The crystal violet solution was discarded and wells were washed with 200 μl ultrapure water per well three times. Next, 50 μl of a 5% sodium dodecyl sulphate (SDS) (Alfa Aesar) was added to each well and the absorbance at 590 nm was measured.

**Q.** What does the source list for `C[C@@H]1CNC(=O)c2cc3ccc(C(=O)Nc4cnn(Cc5ccc(N)cc5)c4)nc3n21` [Compound 18, (R)—N-(1-(4-aminobenzyl)-1H-pyrazol-4-yl)-9-methyl-6-oxo-6,7,8,9-tetrahydropyrido[3′,2′:4,5]pyrrolo[1,2-a]pyrazine-2-carboxamide]?
**A.** IC50 (SUM149-PTXR cells): 2.1 ± 0.3 µM; IC50 (T47D cells [1]): 3.6 ± 1.7 µM; CD274 (gene encoding PD-L1) levels (MDA-MB-231 cells [2]): reduced levels of CD274; HLA-DRA mRNA (MDA-MB-231 cells [2]): elevated levels of HLA-DRA mRNA; mRNA expression of CIITA (MDA-MB-231 cells [2]): little effect; HLA-DRA mRNA (JIMT-1 cells [3]): elevated levels of HLA-DRA mRNA; mRNA expression of CIITA (JIMT-1 cells [3]): little effect; CD274 (gene encoding PD-L1) levels (JIMT-1 cells [3]; 1-20 uM): inhibited CD274; Loss of P-YB-1 ([4]; MDA-MB-231 cells, 0.01, 0.1, 1, or 10 uM, 24 hrs): dose dependent loss of P-YB-1; Loss of P-YB-1 ([4]; MDA-MB-231 cells, 0.01-1 uM, 96 hrs): dose dependent loss of P-YB-1; IC50 (CD34+ cells; Homo sapiens, Hematopoietic stem cell, CD34+ cells from peripheral blood, read-out: CD34+ (PB) IC50): 16.3 µM; Therapeutic Window (CD34+ cells; ratio IC50 against CD34+ cells and MDA-MB-231 cells (SA)): 163X; IC50 (MDA-MB-231 cells [5]): 0.1 µM; IC50 (MDA-MB-468 cells [6]): 0.3 ± 0.1 µM; IC50 (4T1 cells [7]): 5.3 ± 1.1 µM; IC50 (HCC1937 cells [8]): 7.7 ± 3.5 µM; IC50 (JIMT-1 cells [9]): 11.1 ± 0.5 µM; IC50 (MDA-MB-468 cells [10]): 2.3 ± 0.9 µM; IC50 (T47D cells [11]): 2.2 ± 0.8 µM; IC50 (4T1 cells [12]): 5.3 ± 2.5 µM; IC50 (HCC1937 cells [13]): 9.2 ± 1.1 µM; IC50 (PC3 cells): 5.5 ± 0.5 µM; IC50 (JIMT-1 cells [14]): 13.1 ± 6.4 µM; Solubility, 20 mg/ml Solution ([15]; 100 mM in DMSO diluted in DMEM growth media to 20 mg/ml): Soluble; pH of 20 mg/ml solution ([15]; DMSO stock diluted in DMEM, pH test strips): 9; Coefficient of Drug Interaction (CDI) (MDA-MB-231 cells [16]; Compound 18 0.2 μM with paclitaxel (0.3 nM)): 1.6; Coefficient of Drug Interaction (CDI) (MDA-MB-231 cells [16]; Compound 18 0.4 μM with paclitaxel (0.3 nM)): 1.2; Coefficient of Drug Interaction (CDI) (MDA-MB-231 cells [16]; Compound 18 0.8 μM with paclitaxel (0.3 nM), considered synergistic): 0.8*; Coefficient of Drug Interaction (CDI) (MDA-MB-231 cells [16]; Compound 18 1.6 μM with paclitaxel (0.3 nM), considered synergistic): 0.4*; Coefficient of Drug Interaction (CDI) (MDA-MB-231 cells [16]; Compound 18 3.1 μM with paclitaxel (0.3 nM), considered synergistic): 0.2*; Coefficient of Drug Interaction (CDI) (MDA-MB-231 cells [16]; Compound 18 […] with paclitaxel (0.3 nM), considered synergistic): 0.4*
